According to patent EP2810648A1, “Targeting domain-domain interaction for the identification of kinase modulators” (Rauh, Daniel, priority 2013, dated 2014):

Target: T1, Human Akt1 (UniProt entry P31749) (Homo sapiens, UniProt P31749, C296S/C310S/C344S/E49C)
T1 construct: made in house; host or cells: baculovirus, TriEx Sf9 cells
Experiment: iFLiK assay (fluorophore-labeled Akt1 binding assay)
Conditions: for effect on PyMPO fluorescence (emission spectrum): PyMPO-labeled Akt1
Procedure: Measurements were carried out in black 384-well plates (Greiner Bio One). Labeled Akt1 was diluted to 200 nM in the measurement buffer consisting of 50 mM HEPES pH 7.4, 200 mM NaCl and 0.01% Triton-X 100. Dilution series of candidate compounds were prepared in DMSO at 21X the final desired concentration. Compounds (0.5 µL) were then mixed with labeled Akt1 (10 µL) in triplicates and with measurement buffer only in quadruplicates at 12 different concentrations to achieve final compound concentrations ranging from 0.8 nM to […]. Each well contained 5% v/v DMSO after mixing. Plates were then covered with an adhesive plastic foil and incubated for 2 h at RT prior to measurement of emission intensities at fluorophore-specific wavelengths (Table 1) using a Tecan Infinite M1000 plate reader. Compound auto-fluorescence was compensated by subtraction of the average background signals obtained in the absence of labeled kinase. The respective assay readout for the various Akt-fluorophore conjugates specified in Table 1 were fit to a Hill 4-parameter equation to determine Kd values for allosteric Akt ligands. Each reaction was performed in triplicate and at least three independent measurements of each Kd were determined for each ligand. Table 1: Overview of fluorophore probes.
Screening initiatives were carried out in black 384-well plates (Greiner Bio One). PyMPO-labeled Akt1 was diluted to 200 nM in the measurement buffer consisting of 50 mM HEPES pH 7.4, 200 mM Nacl and 0.01% Triton-X 100. Each candidate compound was prepared in DMSO at 210 µM. Compounds (0.5 µL) were then mixed each with labeled Akt1 (10 µL) and with measurement buffer only to achieve final compound concentrations of 10 µM. Each well contained 5% v/v DMSO after mixing. Plates were then covered with an adhesive plastic foil and incubated for 2 h at RT prior to measurement using a Tecan Infinite M1000 plate reader emission intensities at 508 nm and 638 nm, using both 419 nm and 440 nm for excitation. Compound auto-fluorescence was compensated by subtraction of the average background signals obtained in the absence of labeled kinase. Ratio of fluorescence intensities fl638/fl508 were calculated from the background-subtracted values. For hit picking criteria, see Table 2 below.

T1 sequence (P31749 whole entry E49C/C296S/C310S/C344S, one chain of several): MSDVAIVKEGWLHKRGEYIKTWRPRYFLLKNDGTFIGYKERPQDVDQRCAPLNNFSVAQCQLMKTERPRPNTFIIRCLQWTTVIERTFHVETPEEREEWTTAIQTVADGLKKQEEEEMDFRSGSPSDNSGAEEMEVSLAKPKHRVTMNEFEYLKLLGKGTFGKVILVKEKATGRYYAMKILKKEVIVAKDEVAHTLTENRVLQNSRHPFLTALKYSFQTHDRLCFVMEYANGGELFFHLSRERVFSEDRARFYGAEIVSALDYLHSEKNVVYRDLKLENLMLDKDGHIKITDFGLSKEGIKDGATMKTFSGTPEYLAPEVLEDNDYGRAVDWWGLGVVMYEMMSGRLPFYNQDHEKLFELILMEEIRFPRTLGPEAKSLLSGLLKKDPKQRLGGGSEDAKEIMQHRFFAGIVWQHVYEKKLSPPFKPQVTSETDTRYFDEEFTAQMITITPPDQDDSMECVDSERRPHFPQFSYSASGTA

Row | effect on PyMPO fluorescence (emission spectrum) | response of the labeled kinase (collection of fluorophore-labeled kinases, dilution series 0.8 nM to 50 µM) | SMILES
1 | reduction of the fluorescence intensity |  | O=C(O[C@@H]1Cc2c(O)cc(O)cc2O[C@@H]1c1cc(O)c(=O)c2c(O)c(O)cc([C@H]3Oc4cc(O)cc(O)c4C[C@H]3O)c2c1)c1cc(O)c(O)c(O)c1 [XX8]
2 | no effect |  | NC1(Cc2ccc(Cl)cc2)CCN(c2ncnc3[nH]ccc23)CC1 [CCT128930]
3 | no effect | unresponsive | CCn1c(-c2nonc2N)nc2c(C#CC(C)(C)O)ncc(OC[C@H]3CCCNC3)c21 [GSK690693]
4 | bathochromic shift |  | NC1(c2ccc(-c3nc4ccn5c(=O)[nH]nc5c4cc3-c3ccccc3)cc2)CCC1 [MK-2206]
